Experimental data published in ChEMBL document CHEMBL6153104, “Discovery of the first potent ROR1 degrader for the treatment of non-small cell lung cancer” (Eur J Med Chem, 2025).
Active and inactive are the calls of the source. The rule behind the calls is not given here.

How the values were obtained:
[1] = system: NCI-H23; assay: Induction of apoptosis in human NCI-H23 cells assessed as early apoptotic cells at 1 uM incubated for 24 hrs by […]/Annexin V-PE staining based flow cytometric analysis (reference value: 5.1 %); assay type: functional
[2] = system: NCI-H1975; assay: Antiproliferative activity against human NCI-H1975 cells assessed as inhibition of cell proliferation incubated for 72 hrs by CCK8 assay; assay type: functional, cell-based; conditions: NCI-H1975, 72 h
[3] = system: NCI-H460; assay: Antiproliferative activity against human NCI-H460 cells assessed as inhibition of cell proliferation incubated for 72 hrs by CCK8 assay; assay type: functional, cell-based; conditions: NCI-H460, 72 h
[4] = system: NCI-H23; assay: Induction of apoptosis in human NCI-H23 cells assessed as necrotic cells at 1 uM incubated for 24 hrs by […]/Annexin V-PE staining based flow cytometric analysis (reference value: 0.5 %); assay type: functional
[5] = system: NCI-H23; assay: Induction of apoptosis in human NCI-H23 cells assessed as viable cells at 0.3 uM incubated for 24 hrs by […]/Annexin V-PE staining based flow cytometric analysis (reference value: 92.7 %); assay type: functional; conditions: read-out: Activity
[6] = molecular target: Inactive tyrosine-protein kinase transmembrane receptor ROR1 (Homo sapiens, UniProt Q01973); assay: Binding affinity to RED-NHS-labeled human ROR1 kinase domain (460 to 752 residues) extracted from Sf9 cells assessed as dissociation constant incubated for 30 mins by MST analysis; assay type: cell-free
[7] = system: NCI-H23; assay: Induction of apoptosis in human NCI-H23 cells assessed as early apoptotic cells at 0.1 uM incubated for 24 hrs by […]/Annexin V-PE staining based flow cytometric analysis (reference value: 5.1 %); assay type: functional
[8] = system: NCI-H23; assay: Induction of apoptosis in human NCI-H23 cells assessed as PARP1 cleavage at 0.1 to 1 uM measured after 10 hrs by Western blot analysis; assay type: functional, cell-based; conditions: dose 0.1-1 µM
[9] = system: NCI-H1299; assay: Antiproliferative activity against human NCI-H1299 cells assessed as inhibition of cell proliferation incubated for 72 hrs by CCK8 assay; assay type: functional, cell-based; conditions: NCI-H1299, 72 h
[10] = system: NCI-H23; assay: Induction of apoptosis in human NCI-H23 cells assessed as viable cells at 1 uM incubated for 24 hrs by […]/Annexin V-PE staining based flow cytometric analysis (reference value: 92.7 %); assay type: functional; conditions: read-out: Activity
[11] = system: NCI-H23; assay: Induction of apoptosis in human NCI-H23 cells assessed as necrotic cells at 0.1 uM incubated for 24 hrs by […]/Annexin V-PE staining based flow cytometric analysis (reference value: 0.5 %); assay type: functional
[12] = system: NCI-H23; assay: Induction of apoptosis in human NCI-H23 cells assessed as late apoptotic cells at 0.3 uM incubated for 24 hrs by […]/Annexin V-PE staining based flow cytometric analysis (reference value: 1.6 %); assay type: functional
[13] = system: NCI-H23; assay: Induction of apoptosis in human NCI-H23 cells assessed as necrotic cells at 0.3 uM incubated for 24 hrs by […]/Annexin V-PE staining based flow cytometric analysis (reference value: 0.5 %); assay type: functional
[14] = system: NCI-H23; assay: Induction of apoptosis in human NCI-H23 cells assessed as early apoptotic cells at 0.3 uM incubated for 24 hrs by […]/Annexin V-PE staining based flow cytometric analysis (reference value: 5.1 %); assay type: functional
[15] = system: NCI-H23; assay: Induction of apoptosis in human NCI-H23 cells assessed as late apoptotic cells at 1 uM incubated for 24 hrs by […]/Annexin V-PE staining based flow cytometric analysis (reference value: 1.6 %); assay type: functional
[16] = system: NCI-H23; assay: Induction of apoptosis in human NCI-H23 cells assessed as late apoptotic cells at 0.1 uM incubated for 24 hrs by […]/Annexin V-PE staining based flow cytometric analysis (reference value: 1.6 %); assay type: functional
[17] = system: NCI-H23; assay: Induction of apoptosis in human NCI-H23 cells assessed as viable cells at 0.1 uM incubated for 24 hrs by […]/Annexin V-PE staining based flow cytometric analysis (reference value: 92.7 %); assay type: functional; conditions: read-out: Activity
[18] = system: NCI-H23; assay: Induction of apoptosis in human NCI-H23 cells assessed as PARP1 cleavage at 1 uM measured after 10 hrs by Western blot analysis; assay type: functional
[19] = system: NCI-H23; assay: Antiproliferative activity against human NCI-H23 cells assessed as inhibition of cell proliferation incubated for 72 hrs by CCK8 assay; assay type: functional, cell-based; conditions: NCI-H23, 72 h
[20] = molecular target: T1, von Hippel-Lindau disease tumor suppressor/Inactive tyrosine-protein kinase transmembrane receptor ROR1 (Homo sapiens, UniProt P40337+Q01973); assay: PROTAC activity at VHL/ROR1 in human NCI-H23 cells assessed as induction of ROR1 degradation preincubated with cycloheximide followed by compound addition and measured after 6 hrs by Western blot analysis; assay type: cell-based
Target sequence in this assay (P40337 whole entry): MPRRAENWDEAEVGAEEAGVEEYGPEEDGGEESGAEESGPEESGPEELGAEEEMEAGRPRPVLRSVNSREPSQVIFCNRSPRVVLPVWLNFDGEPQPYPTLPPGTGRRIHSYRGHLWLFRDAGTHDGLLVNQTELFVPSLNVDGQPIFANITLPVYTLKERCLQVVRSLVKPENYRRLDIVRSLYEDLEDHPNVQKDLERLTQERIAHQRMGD
Target sequence in this assay (Q01973 30-937 partner limits assumed): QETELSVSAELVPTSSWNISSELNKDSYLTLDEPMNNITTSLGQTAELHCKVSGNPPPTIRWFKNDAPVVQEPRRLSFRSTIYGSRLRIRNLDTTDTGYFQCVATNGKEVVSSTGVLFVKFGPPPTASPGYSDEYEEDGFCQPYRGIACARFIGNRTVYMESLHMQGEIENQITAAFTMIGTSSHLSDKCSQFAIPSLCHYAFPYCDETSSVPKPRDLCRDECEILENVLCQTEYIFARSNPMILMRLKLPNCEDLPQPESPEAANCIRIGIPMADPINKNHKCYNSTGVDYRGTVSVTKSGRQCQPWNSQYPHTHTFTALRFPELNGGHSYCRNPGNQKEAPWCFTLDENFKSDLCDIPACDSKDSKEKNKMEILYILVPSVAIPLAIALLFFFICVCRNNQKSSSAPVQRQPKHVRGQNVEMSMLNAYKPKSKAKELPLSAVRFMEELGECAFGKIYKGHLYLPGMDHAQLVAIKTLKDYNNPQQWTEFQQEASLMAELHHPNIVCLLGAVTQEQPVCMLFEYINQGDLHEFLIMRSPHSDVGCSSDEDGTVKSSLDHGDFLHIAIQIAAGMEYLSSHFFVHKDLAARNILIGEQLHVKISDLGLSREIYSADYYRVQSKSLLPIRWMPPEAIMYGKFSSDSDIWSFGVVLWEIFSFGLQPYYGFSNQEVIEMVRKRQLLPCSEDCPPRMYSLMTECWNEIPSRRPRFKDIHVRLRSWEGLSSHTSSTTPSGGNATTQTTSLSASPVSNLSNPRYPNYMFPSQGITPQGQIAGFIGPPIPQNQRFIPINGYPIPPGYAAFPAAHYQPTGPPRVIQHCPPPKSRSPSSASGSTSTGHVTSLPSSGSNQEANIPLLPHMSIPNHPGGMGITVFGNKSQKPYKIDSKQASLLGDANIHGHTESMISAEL

[21] = molecular target: T2, von Hippel-Lindau disease tumor suppressor/Cyclin-dependent kinase-like 2 (Homo sapiens) (UniProt Q92772+P40337); assay: PROTAC activity at VHL/CDKL2 in human NCI-H23 cells assessed as induction of CDKL2 degradation by Western blot analysis; assay type: cell-based
T2 sequence (P40337 whole entry, looked up): as the sequence (P40337 whole entry) above
T2 sequence (Q92772 whole entry, looked up): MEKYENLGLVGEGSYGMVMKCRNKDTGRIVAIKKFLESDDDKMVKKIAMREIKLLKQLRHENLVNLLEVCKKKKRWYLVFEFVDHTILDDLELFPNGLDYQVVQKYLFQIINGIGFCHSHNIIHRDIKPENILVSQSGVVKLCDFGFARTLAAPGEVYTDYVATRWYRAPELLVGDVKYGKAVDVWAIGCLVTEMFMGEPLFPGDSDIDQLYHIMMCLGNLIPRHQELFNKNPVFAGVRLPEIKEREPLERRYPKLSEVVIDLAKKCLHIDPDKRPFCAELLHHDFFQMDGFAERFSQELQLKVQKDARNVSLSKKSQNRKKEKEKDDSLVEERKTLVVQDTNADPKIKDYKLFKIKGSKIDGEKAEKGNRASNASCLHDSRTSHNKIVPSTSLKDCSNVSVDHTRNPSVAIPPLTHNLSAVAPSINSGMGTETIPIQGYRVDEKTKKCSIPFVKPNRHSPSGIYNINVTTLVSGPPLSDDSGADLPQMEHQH

[22] = molecular target: T3, von Hippel-Lindau disease tumor suppressor/Tyrosine-protein kinase transmembrane receptor ROR2 (Homo sapiens) (UniProt Q01974+P40337); assay: PROTAC activity at VHL/ROR2 in human NCI-H1975 cells assessed as induction of ROR2 degradation at 1 uM by Western blot analysis; assay type: cell-based
[23] = molecular target: T1, von Hippel-Lindau disease tumor suppressor/Inactive tyrosine-protein kinase transmembrane receptor ROR1; assay: PROTAC activity at VHL/ROR1 in human NCI-H23 cells assessed as induction of ROR1 degradation by measuring maximal efficacy at 10 to 1000 nM incubated for 12 hrs by Western blot analysis relative to control; assay type: cell-based; conditions: dose 10-1000 nM
Target sequence in this assay (P40337 whole entry): as the sequence (P40337 whole entry) above
Target sequence in this assay (Q01973 30-937 partner limits assumed): as the sequence (Q01973 30-937 partner limits assumed) above

[24] = molecular target: T2, von Hippel-Lindau disease tumor suppressor/Cyclin-dependent kinase-like 2 (Homo sapiens); assay: PROTAC activity at VHL/CDKL2 in human NCI-H1975 cells assessed as induction of CDKL2 degradation by Western blot analysis; assay type: cell-based
[25] = molecular target: T3, von Hippel-Lindau disease tumor suppressor/Tyrosine-protein kinase transmembrane receptor ROR2 (Homo sapiens); assay: PROTAC activity at VHL/ROR2 in human NCI-H23 cells assessed as induction of ROR2 degradation by Western blot analysis; assay type: cell-based
[26] = molecular target: T1, von Hippel-Lindau disease tumor suppressor/Inactive tyrosine-protein kinase transmembrane receptor ROR1; assay: PROTAC activity at VHL/ROR1 in human NCI-H23 cells assessed as induction of ROR1 degradation at 0.7 uM preincubated with TAK-243 for 2 hrs followed by compound addition and measured after 24 hrs by Western blot analysis; assay type: cell-based
Target sequence in this assay (P40337 whole entry): as the sequence (P40337 whole entry) above
Target sequence in this assay (Q01973 30-937 partner limits assumed): as the sequence (Q01973 30-937 partner limits assumed) above

[27] = molecular target: T1, von Hippel-Lindau disease tumor suppressor/Inactive tyrosine-protein kinase transmembrane receptor ROR1; assay: PROTAC activity at VHL/ROR1 in human NCI-H23 cells assessed as induction of ROR1 degradation at 0.1 uM incubated for 24 hrs by Western blot analysis relative to control; assay type: cell-based
Target sequence in this assay (P40337 whole entry): as the sequence (P40337 whole entry) above
Target sequence in this assay (Q01973 30-937 partner limits assumed): as the sequence (Q01973 30-937 partner limits assumed) above

[28] = molecular target: T1, von Hippel-Lindau disease tumor suppressor/Inactive tyrosine-protein kinase transmembrane receptor ROR1; assay: PROTAC activity at VHL/ROR1 in human NCI-H460 cells assessed as induction of ROR1 degradation incubated for 12 hrs by Western blot analysis; assay type: cell-based
Target sequence in this assay (P40337 whole entry): as the sequence (P40337 whole entry) above
Target sequence in this assay (Q01973 whole entry): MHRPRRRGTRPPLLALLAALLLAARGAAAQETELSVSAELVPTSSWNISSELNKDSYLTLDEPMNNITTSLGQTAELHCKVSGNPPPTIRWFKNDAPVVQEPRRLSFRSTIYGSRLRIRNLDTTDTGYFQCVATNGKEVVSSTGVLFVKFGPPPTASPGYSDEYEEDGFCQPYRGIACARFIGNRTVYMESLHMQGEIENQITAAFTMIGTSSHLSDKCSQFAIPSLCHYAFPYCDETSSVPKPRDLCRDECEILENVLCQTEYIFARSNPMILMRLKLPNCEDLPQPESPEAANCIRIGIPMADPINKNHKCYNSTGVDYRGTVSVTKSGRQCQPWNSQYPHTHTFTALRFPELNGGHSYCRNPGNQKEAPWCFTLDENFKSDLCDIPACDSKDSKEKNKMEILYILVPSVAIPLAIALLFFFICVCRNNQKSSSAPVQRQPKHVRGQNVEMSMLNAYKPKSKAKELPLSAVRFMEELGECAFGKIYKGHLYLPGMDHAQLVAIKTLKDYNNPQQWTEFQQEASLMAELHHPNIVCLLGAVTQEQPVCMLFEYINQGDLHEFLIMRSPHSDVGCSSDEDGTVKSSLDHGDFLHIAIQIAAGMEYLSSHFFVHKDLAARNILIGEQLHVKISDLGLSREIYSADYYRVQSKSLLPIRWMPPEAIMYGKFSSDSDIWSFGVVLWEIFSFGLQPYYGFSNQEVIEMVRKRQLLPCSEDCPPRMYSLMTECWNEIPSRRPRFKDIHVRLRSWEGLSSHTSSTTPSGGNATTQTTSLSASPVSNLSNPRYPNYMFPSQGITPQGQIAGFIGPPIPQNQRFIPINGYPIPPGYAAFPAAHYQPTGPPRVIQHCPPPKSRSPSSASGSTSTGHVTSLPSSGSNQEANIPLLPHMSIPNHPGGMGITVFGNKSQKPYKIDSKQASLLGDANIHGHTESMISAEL

[29] = molecular target: T1, von Hippel-Lindau disease tumor suppressor/Inactive tyrosine-protein kinase transmembrane receptor ROR1; assay: PROTAC activity at VHL/ROR1 in human NCI-H23 cells assessed as induction of ROR1 degradation at 1 uM incubated for 24 hrs by Western blot analysis; assay type: cell-based
Target sequence in this assay (P40337 whole entry): as the sequence (P40337 whole entry) above
Target sequence in this assay (Q01973 30-937 partner limits assumed): as the sequence (Q01973 30-937 partner limits assumed) above

[30] = system: NCI-H23; assay: Induction of apoptosis in human NCI-H23 cells assessed as PARP1 cleavage at 0.1 uM measured after 10 hrs by Western blot analysis; assay type: functional, cell-based
[31] = molecular target: T1, von Hippel-Lindau disease tumor suppressor/Inactive tyrosine-protein kinase transmembrane receptor ROR1; assay: PROTAC activity at VHL/ROR1 in human NCI-H23 cells assessed as induction of ROR1 degradation at 0.5 uM preincubated with bafilomycin A1 for 2 hrs followed by compound addition and measured after 24 hrs by Western blot analysis; assay type: cell-based
Target sequence in this assay (P40337 whole entry): as the sequence (P40337 whole entry) above
Target sequence in this assay (Q01973 30-937 partner limits assumed): as the sequence (Q01973 30-937 partner limits assumed) above

[32] = molecular target: T1, von Hippel-Lindau disease tumor suppressor/Inactive tyrosine-protein kinase transmembrane receptor ROR1; assay: PROTAC activity at VHL/ROR1 in human NCI-H23 cells assessed as induction of ROR1 degradation at 1 uM incubated for 24 hrs by Western blot analysis relative to control; assay type: cell-based
[33] = molecular target: T4, von Hippel-Lindau disease tumor suppressor/Cyclin-dependent kinase 4 (Homo sapiens) (UniProt P11802+P40337); assay: PROTAC activity at VHL/CDK4 in human NCI-H1975 cells assessed as induction of CDK4 degradation by Western blot analysis; assay type: cell-based
T4 sequence (P11802 2-303 limits assumed): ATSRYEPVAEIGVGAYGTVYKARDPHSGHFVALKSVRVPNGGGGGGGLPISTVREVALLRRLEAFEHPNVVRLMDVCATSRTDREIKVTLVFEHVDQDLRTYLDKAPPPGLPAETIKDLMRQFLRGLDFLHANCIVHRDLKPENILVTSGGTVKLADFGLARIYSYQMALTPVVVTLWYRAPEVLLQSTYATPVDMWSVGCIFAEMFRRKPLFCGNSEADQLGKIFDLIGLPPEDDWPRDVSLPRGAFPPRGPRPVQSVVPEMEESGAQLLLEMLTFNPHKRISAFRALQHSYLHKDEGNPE
T4 sequence (P40337 whole entry partner): as the sequence (P40337 whole entry) above

[34] = molecular target: T5, von Hippel-Lindau disease tumor suppressor/Cyclin-dependent kinase 7 (Homo sapiens) (UniProt P50613+P40337); assay: PROTAC activity at VHL/CDK7 in human NCI-H23 cells assessed as induction of CDK7 degradation by Western blot analysis; assay type: cell-based
T5 sequence (P40337 whole entry, looked up): as the sequence (P40337 whole entry) above
T5 sequence (P50613 whole entry, looked up): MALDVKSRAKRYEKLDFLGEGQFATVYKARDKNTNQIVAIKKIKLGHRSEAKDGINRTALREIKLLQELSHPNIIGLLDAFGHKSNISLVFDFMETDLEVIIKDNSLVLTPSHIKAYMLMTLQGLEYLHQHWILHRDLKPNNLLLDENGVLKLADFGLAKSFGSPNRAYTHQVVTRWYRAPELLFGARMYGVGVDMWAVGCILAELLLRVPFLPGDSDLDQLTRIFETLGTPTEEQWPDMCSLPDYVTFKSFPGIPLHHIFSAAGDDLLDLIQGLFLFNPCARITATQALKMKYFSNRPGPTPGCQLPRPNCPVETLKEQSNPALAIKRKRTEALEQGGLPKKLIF

[35] = molecular target: T1, von Hippel-Lindau disease tumor suppressor/Inactive tyrosine-protein kinase transmembrane receptor ROR1; assay: PROTAC activity at VHL/ROR1 in human NCI-H1299 cells assessed as induction of ROR1 degradation incubated for 12 hrs by Western blot analysis; assay type: cell-based
Target sequence in this assay (P40337 whole entry): as the sequence (P40337 whole entry) above
Target sequence in this assay (Q01973 whole entry): as the sequence (Q01973 whole entry) above

[36] = molecular target: T1, von Hippel-Lindau disease tumor suppressor/Inactive tyrosine-protein kinase transmembrane receptor ROR1; assay: PROTAC activity at VHL/ROR1 in human NCI-H23 cells assessed as induction of ROR1 degradation at 1 uM by Western blot analysis; assay type: cell-based; conditions: time 2-24 hrs
[37] = molecular target: T5, von Hippel-Lindau disease tumor suppressor/Cyclin-dependent kinase 7 (Homo sapiens); assay: PROTAC activity at VHL/CDK7 in human NCI-H1975 cells assessed as induction of CDK7 degradation by Western blot analysis; assay type: cell-based
[38] = molecular target: T1, von Hippel-Lindau disease tumor suppressor/Inactive tyrosine-protein kinase transmembrane receptor ROR1; assay: PROTAC activity at VHL/ROR1 in human NCI-H1975 cells assessed as induction of ROR1 degradation incubated for 12 hrs by Western blot analysis; assay type: cell-based
Target sequence in this assay (P40337 whole entry): as the sequence (P40337 whole entry) above
Target sequence in this assay (Q01973 whole entry): as the sequence (Q01973 whole entry) above

[39] = molecular target: T1, von Hippel-Lindau disease tumor suppressor/Inactive tyrosine-protein kinase transmembrane receptor ROR1; assay: PROTAC activity at VHL/ROR1 in human NCI-H23 cells assessed as induction of ROR1 degradation at 0.7 uM preincubated with PS-341 for 2 hrs followed by compound addition and measured after 24 hrs by Western blot analysis; assay type: cell-based
[40] = molecular target: T4, von Hippel-Lindau disease tumor suppressor/Cyclin-dependent kinase 4 (Homo sapiens); assay: PROTAC activity at VHL/CDK4 in human NCI-H23 cells assessed as induction of CDK4 degradation by Western blot analysis; assay type: cell-based
[41] = molecular target: T1, von Hippel-Lindau disease tumor suppressor/Inactive tyrosine-protein kinase transmembrane receptor ROR1; assay: PROTAC activity at VHL/ROR1 in human NCI-H23 cells assessed as induction of ROR1 degradation incubated for 12 hrs by Western blot analysis; assay type: cell-based
[42] = molecular target: T1, von Hippel-Lindau disease tumor suppressor/Inactive tyrosine-protein kinase transmembrane receptor ROR1; assay: PROTAC activity at VHL/ROR1 in human NCI-H23 cells assessed as induction of ROR1 degradation at 1 uM incubated for 4 hrs by Western blot analysis; assay type: cell-based

Structure (SMILES): CCOCCN1CCN(c2ccc(-c3nc4c(NC5CCN(CC)CC5)c(Br)cnc4[nH]3)cc2)CC1
- Activity [1]: 29.5%
- IC50 [2]: 371 nM
- IC50 [3]: 5210 nM
- Activity [4]: 0.7%
- viability at 0.3 µM [5]: 94.5%
- Kd [6]: 42000 nM
- Activity [7]: 2.5%
- Activity [8]: Active; Less Potent Compared To Compound 11
- IC50 [9]: 5820 nM
- viability at 1 µM [10]: 63.7%
- Activity [11]: 0.2%
- Activity [12]: 1%
- Activity [13]: 0.2%
- Activity [14]: 4.3%
- Activity [15]: 6.1%
- Activity [16]: 0.5%
- viability at 0.1 µM [17]: 96.9%
- Activity [18]: 100%
- IC50 [19]: 483 nM

Structure (SMILES): CCN1CCC(Nc2c(Br)cnc3[nH]c(-c4ccc(N5CCN(C(=O)CCCCCCCCC(=O)N[C@H](C(=O)N6C[C@H](O)C[C@H]6C(=O)NCc6ccc(-c7scnc7C)cc6)C(C)(C)C)CC5)cc4)nc23)CC1
- Activity [20]: Active; Compound Reduction Ror1 Protein Via Protein Degradation Pathway
- Activity [21]: inactive
- Activity [1]: 46.9%
- IC50 [2]: 63 nM
- Activity [22]: Active; Slight Degradation Observed
- Emax [23]: 93.7%
- IC50 [3]: 85 nM
- Activity [24]: inactive
- Activity [4]: 1.4%
- Activity [25]: inactive
- Activity [26]: inactive
- Activity [27]: 93%
- viability at 0.3 µM [5]: 32.5%
- DC50 [28]: 69 nM
- Activity [29]: Active; Maximal Degradation Observed
- Activity [30]: Active
- Activity [7]: 29.9%
- IC50 [9]: 164 nM
- Activity [31]: Active
- Activity [32]: 99.7%
- Activity [33]: inactive
- viability at 1 µM [10]: 29.9%
- Activity [11]: 0.3%
- Activity [12]: 20.1%
- Activity [34]: inactive
- Activity [13]: 0.8%
- DC50 [35]: 83.3 nM
- Activity [36]: Time-dependent-effect
- Activity [37]: inactive
- Activity [14]: 46.5%
- DC50 [38]: 42.1 nM
- Activity [39]: inactive
- Activity [15]: 22.1%
- Activity [16]: 6.5%
- viability at 0.1 µM [17]: 63.2%
- Activity [40]: inactive
- IC50 [19]: 36 nM
- Activity [41]: Dose-dependent-effect
- DC50 [41]: 40.9 nM
- Activity [42]: Active
